Test results published in ChEMBL document CHEMBL1133310, “Naphthalene carboxamides as inhibitors of human cytomegalovirus DNA polymerase” (Bioorg Med Chem Lett, 2000).

The molecules below were run against T1, DNA polymerase alpha catalytic subunit (Homo sapiens, UniProt P09884) (assay: Compound was evaluated for the inhibitory activity against Human alpha polymerase). Settings: not given.
T1 sequence (P09884 whole entry): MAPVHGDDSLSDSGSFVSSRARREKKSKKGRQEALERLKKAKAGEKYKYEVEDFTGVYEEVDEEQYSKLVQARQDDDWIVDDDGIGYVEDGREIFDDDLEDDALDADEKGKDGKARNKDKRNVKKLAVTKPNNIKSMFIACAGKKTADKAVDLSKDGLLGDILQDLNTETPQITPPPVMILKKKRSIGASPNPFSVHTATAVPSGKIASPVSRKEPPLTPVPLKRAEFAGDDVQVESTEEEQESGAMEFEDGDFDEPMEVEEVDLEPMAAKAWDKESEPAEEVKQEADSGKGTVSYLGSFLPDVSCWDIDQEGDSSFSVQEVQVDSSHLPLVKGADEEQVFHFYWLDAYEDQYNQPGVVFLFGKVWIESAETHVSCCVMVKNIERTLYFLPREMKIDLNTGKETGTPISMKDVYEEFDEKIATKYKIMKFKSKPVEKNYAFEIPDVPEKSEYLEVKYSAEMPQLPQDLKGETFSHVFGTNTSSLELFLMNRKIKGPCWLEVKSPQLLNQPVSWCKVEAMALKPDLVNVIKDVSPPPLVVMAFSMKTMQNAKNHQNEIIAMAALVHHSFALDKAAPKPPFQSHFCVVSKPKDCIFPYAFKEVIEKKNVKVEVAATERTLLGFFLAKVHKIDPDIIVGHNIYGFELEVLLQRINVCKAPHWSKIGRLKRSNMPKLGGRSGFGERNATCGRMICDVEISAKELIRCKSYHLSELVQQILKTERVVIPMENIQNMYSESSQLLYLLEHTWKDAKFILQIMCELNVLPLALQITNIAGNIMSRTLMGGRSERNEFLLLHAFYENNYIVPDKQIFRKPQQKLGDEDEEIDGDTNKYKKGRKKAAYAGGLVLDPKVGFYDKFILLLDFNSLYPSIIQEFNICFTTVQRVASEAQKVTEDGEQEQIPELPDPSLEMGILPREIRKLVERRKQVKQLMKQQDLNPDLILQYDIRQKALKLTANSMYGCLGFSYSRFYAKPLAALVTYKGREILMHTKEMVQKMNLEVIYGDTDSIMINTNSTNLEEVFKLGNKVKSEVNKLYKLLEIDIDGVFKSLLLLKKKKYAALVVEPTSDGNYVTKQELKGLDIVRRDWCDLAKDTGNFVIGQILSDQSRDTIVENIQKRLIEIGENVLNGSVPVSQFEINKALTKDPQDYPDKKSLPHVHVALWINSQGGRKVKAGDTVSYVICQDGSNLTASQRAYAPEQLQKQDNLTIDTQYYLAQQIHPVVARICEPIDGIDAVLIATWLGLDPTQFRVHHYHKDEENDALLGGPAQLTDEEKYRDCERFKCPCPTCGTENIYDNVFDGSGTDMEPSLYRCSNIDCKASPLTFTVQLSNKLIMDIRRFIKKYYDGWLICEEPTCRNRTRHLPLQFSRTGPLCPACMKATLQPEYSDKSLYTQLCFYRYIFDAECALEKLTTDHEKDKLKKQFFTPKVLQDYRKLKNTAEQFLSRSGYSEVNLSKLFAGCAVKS

Question: Which IC50 does the source give for `O=C(Nc1cccc([N+](=O)[O-])c1)c1cc2ccccc2cc1O` here?
Answer: 32000 nM

The molecules below were run on HFF (assay: Antiviral activity in a cell-based plaque reduction assay, using an HFF cell line and the Davis strain of HCMV). Settings: Homo sapiens.
Type: functional

Question: Which IC50 does the source give for `O=C(NCCc1ccc(Cl)cc1)c1cc2ccccc2cc1O` here?
Answer: > 20000 nM

Question: How did the IC50 turn out when `O=C(NCc1ccc(Cl)cc1)c1ccc2ccccc2c1O` was run?
Answer: > 20000 nM

Question: Which IC50 does the source give for `O=C(NCc1ccc(Cl)cc1)c1cc2cc(O)ccc2cc1O` here?
Answer: 1000 nM

Question: How did the IC50 turn out when `O=C(NCc1ccc([N+](=O)[O-])cc1)c1cc2cccc(O)c2cc1O` was run?
Answer: 1500 nM

Question: With `COc1ccc2cc(O)c(C(=O)NCc3ccc([N+](=O)[O-])cc3)cc2c1` as the molecule, how does the IC50 read?
Answer: 3700 nM

Question: For `O=C(NCc1ccc(Cl)cc1)c1cc2cccc(O)c2cc1O`, which IC50 is on record?
Answer: 600 nM

Question: With `Nc1nc2c(ncn2COC(CO)CO)c(=O)[nH]1` [GANCICLOVIR] as the molecule, how does the IC50 read?
Answer: 600 nM

Question: How did the IC50 turn out when `COc1ccc2cc(O)c(C(=O)Nc3nc4c(Cl)cccc4s3)cc2c1` was run?
Answer: > 5000 nM
